Experimental data published in patent US20230339970A1, “CASEIN KINASE 1 DELTA MODULATORS” (priority 2020, published 2023).

Experiments:
[1] = target: T1, human CSNK1D (Homo sapiens, UniProt P48730); assay: Whole Cell nBRET CSNK1D Binding Assay; conditions: living CHO cells stably expressing human CSNK1D tagged with nanoluciferase; NanoBret tracer 130 nM; 2 hours at 37 C
T1 construct: expressed in transfected cells

[2] = target: T2, human recombinant GST cleaved CSNK1D (Homo sapiens, UniProt P48730); assay: Purified Enzyme Assay (ADP-Glo CSNK1D Kinase Assay); assay type: biochemical; conditions: 2 nM CSNK1D; peptide substrate 150 μM; ATP 20 μM; 45 minutes at room temperature
T2 construct: GST (cleaved yes); purchased University of Dundee clone DU 19064
T2 sequence (P48730 whole entry): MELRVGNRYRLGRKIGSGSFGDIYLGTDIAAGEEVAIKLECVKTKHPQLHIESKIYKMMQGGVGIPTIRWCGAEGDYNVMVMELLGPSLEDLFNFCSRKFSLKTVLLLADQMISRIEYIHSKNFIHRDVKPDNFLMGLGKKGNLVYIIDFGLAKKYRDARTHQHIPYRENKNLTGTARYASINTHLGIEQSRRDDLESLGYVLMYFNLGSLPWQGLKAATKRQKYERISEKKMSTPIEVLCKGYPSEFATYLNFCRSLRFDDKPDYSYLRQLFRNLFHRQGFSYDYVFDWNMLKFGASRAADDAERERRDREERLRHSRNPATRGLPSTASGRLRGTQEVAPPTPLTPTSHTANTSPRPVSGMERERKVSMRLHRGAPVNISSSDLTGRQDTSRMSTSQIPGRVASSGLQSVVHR
Method in brief: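 GST-cleaved human recombinant CSNK1D phosphorylates peptide PLSRTL-pS-VASLPGL with ATP; compounds added in dose-response, 45 min at room temperature. ADP formed measured by ADP-Glo luminescence and converted to percent activity.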

T1 sequence (P48730 whole entry): as above

SMILES	IC50 [1] [nM]	IC50 [2] [nM]
Cc1cc(-c2c(-c3ccc(F)c(C)n3)nn3c2COC(C)(C)C3)c2c(C)n[nH]c2n1 [Example 393, 3-(3,6-Dimethyl-1H-pyrazolo[3,4-b]pyridin-4-yl)-2-(5-fluoro-6-methylpyridin-2-yl)-6,6-dimethyl-6,7-dihydro-4H-pyrazolo[5,1-c][1,4]oxazine]	2740	49
Cc1n[nH]c2nccc(-c3c(-c4ccc(F)cn4)nn4c3COC(C)(C(F)(F)F)C4)c12 (single isomer, unassigned) [Example 419, (*S)-2-(5-Fluoropyridin-2-yl)-6-methyl-3-(3-methyl-1H-pyrazolo[3,4-b]pyridin-4-yl)-6-(trifluoromethyl)-6,7-dihydro-4H-pyrazolo[5,1-c][1,4]oxazine]	> 10000	235
Fc1cnc(-c2nn3c(c2-c2ccnc4[nH]ncc24)OCCC3)c(F)c1 [Example 188, 2-(3,5-Difluoro-2-pyridyl)-3-(1H-pyrazolo[3,4-b]pyridin-4-yl)-6,7-dihydro-5H-pyrazolo[5,1-b][1,3]oxazine]	139	12
CC(=O)Nc1cc(-c2c(-c3ccc(F)cn3)nn3c2OCCC3)ccn1 [Example 183, N-(4-(2-(5-Fluoropyridin-2-yl)-6,7-dihydro-5H-pyrazolo[5,1-b][1,3]oxazin-3-yl)pyridin-2-yl)acetamide]	220	7
CC(=O)Nc1cc(-c2c(-c3ccc(F)cn3)nn3c2CC[C@@H]2[C@H]3C2(F)F)ccn1 (stereo in doubt) [Example 352, N-(4-((5a*R,6a*S)-6,6-Difluoro-2-(5-fluoropyridin-2-yl)-5,5a,6,6a-tetrahydro-4H-cyclopropa[e]pyrazolo[1,5-a]pyridin-3-yl)pyridin-2-yl)acetamide]	1300	50
Cc1nc2[nH]nc(C)c2c(-c2c(-c3ccc(F)cn3)nn3c2CC[C@]2(C3)CC2(F)F)c1F (single isomer, unassigned) [Example 334, (*R)-2,2-Difluoro-3′-(5-fluoro-3,6-dimethyl-1H-pyrazolo[3,4-b]pyridin-4-yl)-2′-(5-fluoropyridin-2-yl)-4′,5′-dihydro-7′H-spiro[cyclopropane-1,6′-pyrazolo[1,5-a]pyridine]]	1550	70
Fc1ccc(-c2nn3c(c2-c2ccnc4[nH]ncc24)COC2(C3)CC2(F)F)nc1 (single isomer, unassigned) [Example 434, (*S)-1′. 1′-Difluoro-2-(5-fluoro-2-pyridyl)-3-(1H-pyrazolo[3,4-b]pyridin-4-yl)spiro[4,7-dihydropyrazolo[5,1-c][1,4]oxazine-6,2′-cyclopropane]]	8290	165
COC[C@]1(F)CCc2c(-c3ccnc4[nH]ncc34)c(-c3ccc(F)cn3)nn2C1 (single isomer, unassigned) [Example 300, (*S)-4-[6-Fluoro-2-(5-fluoro-2-pyridyl)-6-(methoxymethyl)-5,7-dihydro-4H-pyrazolo[1,5-a]pyridin-3-yl]-1H-pyrazolo[3,4-b]pyridine]	1910	75
COC[C@@]1(C)CCc2c(-c3cc(C)nc4[nH]ncc34)c(-c3ccc(F)cn3)nn2C1 (single isomer, unassigned) [Example 55, (*S)-4-(2-(5-Fluoropyridin-2-yl)-6-(methoxymethyl)-6-methyl-4,5,6,7-tetrahydropyrazolo[1,5-a]pyridin-3-yl)-6-methyl-1H-pyrazolo[3,4-b]pyridine]	125	3
[2H]C([2H])([2H])C1(C([2H])([2H])[2H])Cn2nc(-c3ccc(F)cn3)c(-c3ccn4nccc4c3)c2CO1 [Example 396, 2-(5-Fluoropyridin-2-yl)-6,6-bis(methyl-d3)-3-(pyrazolo[1,5-a]pyridin-5-yl)-6,7-dihydro-4H-pyrazolo[5,1-c][1,4]oxazine]	292	22
CNC(=O)c1cc(-c2c(-c3ccc(F)cn3)nn3c2COC(C)(C(F)(F)F)C3)ccn1 (stereo not shown) [Example 175, 4-(2-(5-Fluoropyridin-2-yl)-6-methyl-6-(trifluoromethyl)-6,7-dihydro-4H-pyrazolo[5,1-c][1,4]oxazin-3-yl)-N-methylpicolinamide]	3610	148
C[C@@H]1CCc2c(-c3ccnc4[nH]ncc34)c(-c3ccc(F)cn3)nn21 [Example 20, 4-[(6R)-2-(5-Fluoro-2-pyridyl)-6-methyl-5,6-dihydro-4H-pyrrolo[1,2-b]pyrazol-3-yl]-1H-pyrazolo[3,4-b]pyridine]	411	20
[2H]C([2H])([2H])[C@]1(C(F)(F)F)Cn2nc(-c3ccc(F)cn3)c(-c3c(F)c(C)nc4[nH]nc(C)c34)c2CO1 (single isomer, unassigned) [Example 430, (*R)-3-(5-Fluoro-3,6-dimethyl-1H-pyrazolo[3,4-b]pyridin-4-yl)-2-(5-fluoropyridin-2-yl)-6-(methyl-d3)-6-(trifluoromethyl)-6,7-dihydro-4H-pyrazolo[5,1-c][1,4]oxazine]	1190	92
Cc1cc(-c2c(-c3ccc(F)cn3)nn3c2CC(F)C3)c2cn[nH]c2n1 (stereo not shown) [Example 13, 4-(5-Fluoro-2-(5-fluoropyridin-2-yl)-5,6-dihydro-4H-pyrrolo[1,2-b]pyrazol-3-yl)-6-methyl-1H-pyrazolo[3,4-b]pyridine]	671	29
Cn1cnc(-c2nn3c(c2-c2ccnc4[nH]ncc24)COC(C)(C)C3)c1 [Example 127, 6,6-Dimethyl-2-(1-methyl-1H-imidazol-4-yl)-3-(1H-pyrazolo[3,4-b]pyridin-4-yl)-6,7-dihydro-4H-pyrazolo[5,1-c][1,4]oxazine]	3250	51
Fc1ccc(-c2nn3c(c2-c2ccnc4[nH]ncc24)CCC(F)(COC(F)F)C3)nc1 (single isomer, unassigned) [Example 315, (*R)-4-(6-((Difluoromethoxy)methyl)-6-fluoro-2-(5-fluoropyridin-2-yl)-4,5,6,7-tetrahydropyrazolo[1,5-a]pyridin-3-yl)-1H-pyrazolo[3,4-b]pyridine]	1880	73

More lines, in order of falling IC50 [1], values ahead:

IC50 [1] [nM]	IC50 [2] [nM]	SMILES
124	16	Cc1n[nH]c2nccc(-c3c(-c4ccc(F)cn4)nn4c3CO[C@@](C)(C(F)(F)F)C4)c12 (single isomer, unassigned) [Example 418, (*R)-2-(5-Fluoropyridin-2-yl)-6-methyl-3-(3-methyl-1H-pyrazolo[3,4-b]pyridin-4-yl)-6-(trifluoromethyl)-6,7-dihydro-4H-pyrazolo[5,1-c][1,4]oxazine]
79	7	Fc1ccc(-c2nn3c(c2-c2ccnc4[nH]ncc24)C[C@@H](F)C3)cc1 [Example 228, 4-[(5R)-5-Fluoro-2-(4-fluorophenyl)-5,6-dihydro-4H-pyrrolo[1,2-b]pyrazol-3-yl]-1H-pyrazolo[3,4-b]pyridine]
75	9	CC1(C)COc2c(-c3ccnc4ccsc34)c(-c3ccc(F)cn3)nn2C1 [Example 214, 2-(5-Fluoropyridin-2-yl)-6,6-dimethyl-3-(thieno[3,2-b]pyridin-7-yl)-6,7-dihydro-5H-pyrazolo[5,1-b][1,3]oxazine]
69	12	[2H]C([2H])([2H])C1(C([2H])([2H])[2H])Cn2nc(-c3ccc(F)cn3)c(-c3c(F)c(C)nc4[nH]nc(C)c34)c2CO1 [Example 409, 3-(5-Fluoro-3,6-dimethyl-1H-pyrazolo[3,4-b]pyridin-4-yl)-2-(5-fluoropyridin-2-yl)-6,6-bis(methyl-d3)-6,7-dihydro-4H-pyrazolo[5,1-c][1,4]oxazine]
48	2	C[C@H]1Cn2nc(-c3ccc(F)cc3)c(-c3ccnc4[nH]ncc34)c2CO1 (single isomer, unassigned) [Example 81, (*)-2-(4-Fluorophenyl)-6-methyl-3-(1H-pyrazolo[3,4-b]pyridin-4-yl)-6,7-dihydro-4H-pyrazolo[5,1-c][1,4]oxazine]
35	3	Cc1nc(-c2c(-c3ccc(F)cc3)nn3c2OCC2(CC2)C3)c2cn[nH]c2n1 [Example 465, 2′-(4-Fluorophenyl)-3′-(6-methyl-1H-pyrazolo[3,4-d]pyrimidin-4-yl)-5′H,7′H-spiro[cyclopropane-1,6′-pyrazolo[5,1-b][1,3]oxazine]]
35	1	Fc1ccc(-c2nn3c(c2-c2ccnc4[nH]ccc24)CCC3)nc1 [Example 6, 4-(2-(5-Fluoropyridin-2-yl)-5,6-dihydro-4H-pyrrolo[1,2-b]pyrazol-3-yl)-1H-pyrrolo[2,3-b]pyridine]
21	2	Fc1ccc(-c2nn3c(c2-c2ccnc4[nH]ncc24)OCC(F)(F)C3)cc1 [Example 467, 6,6-Difluoro-2-(4-fluorophenyl)-3-(1H-pyrazolo[3,4-b]pyridin-4-yl)-5,7-dihydropyrazolo[5,1-b][1,3]oxazine]
20	2	CC(=O)Nc1cc(-c2c(-c3ccc(F)cn3)nn3c2CC[C@H]2[C@@H]3C2(F)F)ccn1 (stereo in doubt) [Example 351, N-(4-((5a*S,6a*R)-6,6-Difluoro-2-(5-fluoropyridin-2-yl)-5,5a,6,6a-tetrahydro-4H-cyclopropa[e]pyrazolo[1,5-a]pyridin-3-yl)pyridin-2-yl)acetamide]
3	1	Fc1ccc(-c2nn3c(c2-c2ccnc4[nH]ncc24)[C@@H]2CC[C@H]3C2)cc1 (single isomer, unassigned) [Example 60, 4*R,7*S)-2-(4-Fluorophenyl)-3-(1H-pyrazolo[3,4-b]pyridin-4-yl)-4,5,6,7-tetrahydro-4,7-methanopyrazolo[1,5-a]pyridine]
